From ChEMBL document CHEMBL1201862, “PubChem BioAssay data set” (2004) come the findings set out here.

Among the test systems are DMS-114; DMS-273; HOP-18; KM-20L2; LXFL 529; M19-MEL; XF498; SNB-78; RXF 631.
Common to all, as to assay: DTP human tumour cell line panel, 48 h

Molecules are shown by their SMILES.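 All cell lines were grown in 96-well plates and treated with compound for 48 hours. At the GI50, growth is halved.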 The source made the active and inactive calls. Cut-off read from the data, not from the text of the source: active = GI50 up to about 1.1 µM and inactive = higher.

For orientation: GI50 means the concentration giving 50% growth inhibition. Regarding `O=C(c1ccccc1)c1nc2ccc(Cl)cc2cc1C(Br)Br`, the GI50 in the test on DMS-114 is 1.79 µM (inactive); with DMS-273, 0.286 µM (active); in the test with HOP-18, 0.344 µM (active); in the test on KM-20L2, 0.25 µM (active); with LXFL 529, 0.216 µM (active); with M19-MEL, 0.418 µM (active). The GI50 in the test with XF498 is 0.933 µM (active).

Turning to `N#CCc1cccc(CC#N)c1Br`, the GI50 with DMS-114, in the test with DMS-273, in the test with KM-20L2, in the test on LXFL 529, with SNB-78 and in the test with XF498 was > 100 µM (inactive) in each case.

As to `COc1ccc([C@@]2(O)c3c(ccc(O)c3OC)[C@H]2OC)c(OC)c1`, the GI50 in the test with DMS-114 is 22.1 µM (inactive); in the test with KM-20L2, 66.5 µM (inactive); with LXFL 529, 30.2 µM (inactive); in the test on M19-MEL it was 48.5 µM (inactive); with XF498, 41.7 µM (inactive).

With `O=C(NC1C2CC3CC(C2)CC1C3)c1ccncn1` (stereo unspecified), the GI50 in the test with DMS-114, in the test on DMS-273, in the test with KM-20L2, with LXFL 529, with M19-MEL and with RXF 631 was > 100 µM (inactive) each time. Further, the GI50 with SNB-78 was > 100 µM (inactive).

For the molecule `O=C(N/N=C(\C1=Nc2ccc(Cl)cc2NC1O)C(O)/C=C/c1ccccc1)c1ccncc1` (stereo unspecified), the GI50 in the test on DMS-114, in the test on DMS-273, in the test with KM-20L2, in the test with LXFL 529, in the test with M19-MEL and in the test with SNB-78 was > 100 µM (inactive) each time. The GI50 in the test with XF498 is > 100 µM (inactive).

`C[C@@H](CC(O)C1OC1(C)C)[C@@H]1CC[C@]2(C)C3=CCC4C(C)(C)C(O)CC[C@]4(C)C3CCC12C` (stereo partly specified): the GI50 in the test on DMS-273 was 13.3 µM (inactive); with HOP-18 it was 20 µM (inactive); in the test with KM-20L2, 15.4 µM (inactive); in the test with LXFL 529, 12.3 µM (inactive); in the test on M19-MEL, 18.1 µM (inactive); in the test with XF498 it was 20.8 µM (inactive).

Turning to `O=C1c2ccccc2C(=O)N1CCn1ccc(NC(c2ccccc2)(c2ccccc2)c2ccccc2)nc1=O`, the GI50 was 18.4 µM (inactive) in the test with DMS-114; 17.3 µM (inactive) in the test with DMS-273; 24.2 µM (inactive) with HOP-18; 14.1 µM (inactive) with KM-20L2; 28.4 µM (inactive) in the test with LXFL 529; 16.8 µM (inactive) in the test on M19-MEL. Moreover, the GI50 was 15 µM (inactive) in the test on RXF 631, 30.8 µM (inactive) in the test on SNB-78 and 13.9 µM (inactive) in the test with XF498.

Consider `Cn1c2cccc3nnc4cccc(c4c32)n1C`, for which the GI50 in the test on DMS-114, with DMS-273, with KM-20L2, with LXFL 529, in the test with M19-MEL and in the test on RXF 631 was > 100 µM (inactive) throughout. Further, the GI50 in the test on SNB-78 and in the test on XF498 was > 100 µM (inactive) in each case.

For the molecule `CC(=O)O[C@H]1[C@H](O[C@H]2CC[C@]34C[C@]35CC[C@]3(C)[C@@H]([C@@]6(C)CC[C@@H](C(C)(C)O)O6)[C@@H](O)C[C@@]3(C)[C@@H]5C[C@H](O[C@@H]3O[C@H](CO)[C@@H](O)[C@H](O)[C@H]3O)[C@H]4C2(C)C)OC[C@@H](O)[C@@H]1O`, the GI50 in the test with DMS-114 is 66.2 µM (inactive); with DMS-273 it was 44.6 µM (inactive); in the test on HOP-18, > 100 µM (inactive); in the test on KM-20L2, 69.7 µM (inactive); in the test with LXFL 529, 74.8 µM (inactive); in the test on M19-MEL it was 78.5 µM (inactive). Also, the GI50 with RXF 631, in the test on SNB-78 and in the test on XF498 was > 100 µM (inactive) in each case.

As for `OCCOc1ccc(-c2cc(-c3ccccn3)nc(-c3ccccn3)c2)cc1`, the 50% growth inhibitory concentration (GI50) in the test on DMS-114 is 0.0552 µM (active); in the test with DMS-273 it was 0.143 µM (active); in the test with HOP-18 it was 0.166 µM (active); in the test with KM-20L2, < 0.0383 µM (active); with LXFL 529, 0.376 µM (active); in the test on M19-MEL, 0.0962 µM (active). In addition, the concentration for 50% growth inhibition (GI50) in the test with RXF 631 was 0.465 µM (active); in the test on SNB-78, 2.83 µM (inactive); with XF498 it was 0.0387 µM (active).

With `COc1cc(C[S+]2CCCC2)c(SC)cc1C[S+]1CCCC1`, the GI50 in the test on DMS-114, in the test on KM-20L2, with LXFL 529, in the test on M19-MEL, with RXF 631 and with SNB-78 was > 100 µM (inactive) in each case. For the same molecule, the GI50 in the test on XF498 is 74.5 µM (inactive).

Take `CCN(CC)CCCN1CCc2c([nH]c3ccccc23)C1c1cccnc1` (stereo unspecified): the GI50 with DMS-114, in the test on DMS-273, with KM-20L2, in the test with LXFL 529, in the test on M19-MEL and in the test on RXF 631 was > 100 µM (inactive) in each case. Further, the GI50 in the test with SNB-78 was > 100 µM (inactive); with XF498, 5.22 µM (inactive).

Consider `CCOC(=O)c1cnc2c(ccc3ncccc32)c1NCCCN(CC)CC`, for which the GI50 was 54.1 µM (inactive) in the test on DMS-273; > 100 µM (inactive) with HOP-18; 34.2 µM (inactive) in the test with KM-20L2; > 100 µM (inactive) in the test on LXFL 529; > 100 µM (inactive) with M19-MEL; > 100 µM (inactive) with SNB-78. Besides, in the test with XF498, the GI50 is > 100 µM (inactive).

For `CN(C)CCC(/C=C/c1ccccc1)=N\Nc1ccccc1`, the GI50 with DMS-114 was 2.07 µM (inactive); in the test on DMS-273 it was 0.571 µM (active); in the test with HOP-18 it was 4.5 µM (inactive); in the test on KM-20L2, 0.241 µM (active); with LXFL 529, 0.185 µM (active); in the test on M19-MEL it was 1.57 µM (inactive). Also, the GI50 in the test on SNB-78 was 3.63 µM (inactive).

With `COc1ccccc1/C=C1\CCC(CNc2ccc(Cl)cc2)C1=O` (stereo unspecified), the GI50 with DMS-114 is 4.08 µM (inactive); in the test on DMS-273, 1.74 µM (inactive); in the test on HOP-18, 16.5 µM (inactive); in the test with KM-20L2, 0.661 µM (active); in the test with LXFL 529, 0.226 µM (active); in the test with M19-MEL it was 1.61 µM (inactive). For the same molecule, the GI50 in the test with SNB-78 was 19.5 µM (inactive); in the test on XF498 it was 27.9 µM (inactive).

As for `COc1ccc(N2C(=O)C(N3C(=O)C=CC3=O)C2C=O)cc1` (stereo unspecified), the GI50 with DMS-273, in the test with HOP-18, with KM-20L2, with LXFL 529, in the test with M19-MEL and with SNB-78 was > 100 µM (inactive) throughout.

As for `CC(=O)Oc1cc(OC(C)=O)c2cc3c(cc2c1OC(C)=O)C(=O)C1(CCCC1)C3=O`, the GI50 in the test on DMS-114 is 16.5 µM (inactive); in the test with DMS-273 it was 18.2 µM (inactive); in the test on HOP-18, 22.8 µM (inactive); with KM-20L2, 22.1 µM (inactive); with M19-MEL, 17.2 µM (inactive); in the test on SNB-78 it was 22.9 µM (inactive). In addition, in the test with XF498, the GI50 was 16.4 µM (inactive).

Regarding `Cc1ccc(C)c(N2C/C(=N\NC(=O)CC#N)C(c3nc4ccccc4s3)C(=O)C2=O)c1` (stereo unspecified), the GI50 with DMS-114, with DMS-273, in the test on HOP-18, in the test on KM-20L2, in the test with LXFL 529 and in the test with M19-MEL was > 100 µM (inactive) throughout. For the same molecule, the GI50 in the test with SNB-78 and with XF498 was > 100 µM (inactive) in each case.

With `COc1cc(C)c2c(c1)CN1CN2Cc2cc(OC)cc(C)c21`, the GI50 in the test on DMS-114 is 21.5 µM (inactive); in the test with DMS-273, 38.2 µM (inactive); with LXFL 529 it was 60 µM (inactive); with M19-MEL, 38.9 µM (inactive); in the test with SNB-78, 56.8 µM (inactive).

As to `O=C1CCC2(c3ccccc3)Nc3ncccc3N12` (stereo unspecified), the GI50 with DMS-114, with KM-20L2, in the test on LXFL 529, in the test with M19-MEL, in the test on SNB-78 and in the test with XF498 was > 100 µM (inactive) each time.

For the molecule `O=C(O)CCC(NC(=O)c1ccccc1)C(=O)O` (stereo unspecified), the GI50 in the test on DMS-114, in the test on DMS-273, in the test with HOP-18, in the test on KM-20L2, in the test on LXFL 529 and with RXF 631 was > 100 µM (inactive) each time. For the same molecule, the GI50 in the test on SNB-78 and with XF498 was > 100 µM (inactive) in each case.

Turning to `COC(=O)C1C2CC3C(OC(=O)C31)C2OC(=O)[C@](OC)(c1ccccc1)C(F)(F)F` (stereo partly specified), the GI50 with DMS-114, in the test with DMS-273, in the test on KM-20L2, with LXFL 529, with M19-MEL and with RXF 631 was > 100 µM (inactive) throughout. The GI50 in the test with SNB-78 and in the test on XF498 was > 100 µM (inactive) throughout.

As for `COC(=O)C(CC1=C(O)Nc2ccccc2N1)/C(=N/NC(N)=O)C(=O)Nc1ccccc1C` (stereo unspecified), the GI50 in the test with DMS-114 was 12.9 µM (inactive); in the test on DMS-273, 17 µM (inactive); in the test with HOP-18, > 100 µM (inactive); in the test with KM-20L2, > 100 µM (inactive); in the test with LXFL 529 it was 69.8 µM (inactive); in the test on M19-MEL, 60.1 µM (inactive). Moreover, the GI50 with SNB-78 was > 100 µM (inactive).

For the molecule `CC/C(C)=C1\CCC(CN2CCOCC2)C1=O` (stereo unspecified), the GI50 was 5.26 µM (inactive) in the test with DMS-114; 18.1 µM (inactive) in the test with DMS-273; 19 µM (inactive) in the test with HOP-18; 19.2 µM (inactive) with KM-20L2; 11.2 µM (inactive) in the test with LXFL 529; 14.9 µM (inactive) in the test on M19-MEL. The GI50 in the test on SNB-78 was 21.8 µM (inactive); in the test with XF498, 19.1 µM (inactive).

In the case of `COc1ccc(C23c4ccc(OC)cc4CC2(c2ccc([N+](=O)[O-])cc2)Cc2cc(OC)ccc23)cc1` (stereo unspecified), the GI50 with DMS-114 was > 50 µM (inactive); in the test with DMS-273, > 62.2 µM (inactive); with HOP-18, 1.17 µM (inactive); in the test on KM-20L2, > 15.7 µM (inactive); in the test with LXFL 529, > 54.5 µM (inactive); in the test with M19-MEL, > 35.2 µM (inactive). In addition, the GI50 in the test on SNB-78 and in the test with XF498 was > 100 µM (inactive) in each case.
